pEC50: −log10 of the molar value.
Columns and labels:
[1] = test system: HBV; assay: Determination of HBV DNA from the supernatants of HepAD38 cells (anti-HBV activity); type: cell-based, hepatitis B virus; conditions: Hepatitis B virus, 144 h; HBV DNA in HepAD38 supernatant, day 6, qPCR; read-out: Cell Activity (EC50)
Procedure: Determination of HBV DNA from the Supernatants of HepAD38 Cells
The anti-HBV activity was analysed in the stable transfected cell line HepAD38, which has been described to secrete high levels of HBV virion particles (Ladner et al., 1997). In brief, HepAD38 cells were cultured at 37° C. at 5% CO2 and 95% humidity in 200 μl maintenance medium, which was Dulbecco's modified Eagle's medium/Nutrient Mixture F-12 (Gibco, Karlsruhe), 10% fetal bovine serum (PAN Biotech Aidenbach) supplemented with 50 μg/ml penicillin/streptomycin (Gibco, Karlsruhe), 2 mM L-glutamine (PAN Biotech, Aidenbach), 400 μg/ml G418 (AppliChem, Darmstadt) and 0.3 μg/ml tetracycline. Cells were subcultured once a week in a 1:5 ratio, but were usually not passaged more than ten times. For the assay 60,000 cells were seeded in maintenance medium without any tetracycline into each well of a 96-well plate and treated with serial half-log dilutions of test compound. To minimize edge effects the outer 36 wells of the plate were not used but were filled with assay medium. On each assay plate six wells for the virus control (untreated HepAD38 cells) and six wells for the cell control (HepAD38 cells treated with 0.3 μg/ml tetracycline) were allocated, respectively. In addition, one plate set with reference inhibitors like BAY 41-4109, entecavir, and lamivudine instead of screening compounds were prepared in each experiment. In general, experiments were performed thrice in triplicates. At day 6 HBV DNA from 100 μl filtrated cell culture supernatant (AcroPrep Advance 96 Filter Plate, […] Supor membran, PALL GmbH, Dreieich) was automatically purified on the MagNa Pure LC instrument using the MagNA Pure 96 DNA and Viral NA Small Volume Kit (Roche Diagnostics, Mannheim) according to the instructions of the manufacturer. EC50 values were calculated from relative copy numbers of HBV DNA In brief, 5 μl of the 100 μl eluate containing HBV DNA were subjected to PCR LC480 Probes Master Kit (Roche) together with 1 μM antisense primer […], 0.5 μM sense primer […], 0.3 μM hybprobes […]-FL and LC640-[…]-PH (TIBMoBiol, Berlin) to a final volume of 12.5 μl. The PCR was performed on the Light Cycler 480 real time system (Roche Diagnostics, Mannheim) using the following protocol: Pre-incubation for 1 min at 95° C., amplification: 40 cycles×(10 sec at 95° C., 50 sec at 60° C., 1 sec at 70° C.), cooling for 10 sec at 40° C. Viral load was quantitated against known standards using HBV plasmid DNA of pCH-9/3091 (Nassal et al., 1990, Cell 63: 1357-1363) and the LightCycler 480 SW 1.5 software (Roche Diagnostics, Mannheim) and EC50 values were calculated using non-linear regression with GraphPad Prism 6 (GraphPad Software Inc., La Jolla, USA).

[2] = Cell viability assay (AlamarBlue) in HepAD38 cells; conditions: human

| Compound | pEC50 [1] | CC50 at 6 days [2] [µM] |
| --- | --- | --- |
| O=C(c1cc2ccccc2[nH]1)N1CCc2[nH]nc(C(=O)N3CC[C@@H](F)C3)c2C1 [Example 225, 2-{3-[(3R)-3-fluoropyrrolidine-1-carbonyl]-1H,4H,5H,6H,7H-pyrazolo[4,3-c]pyridine-5-carbonyl}-1H-indole] | > 6.00 | > 10 |
| N[C@@H]1CCN(C(=O)c2[nH]nc3c2CN(C(=O)c2cc4ccccc4[nH]2)CC3)C1 [Example 259, (3R)-1-[5-(1H-indole-2-carbonyl)-2H,4H,5H,6H,7H-pyrazolo[4,3-c]pyridine-3-carbonyl]pyrrolidin-3-amine] | 4.60 to 6.00 | > 10 |
| CN(C(=O)c1n[nH]c2c1CN(C(=O)c1cc3ccccc3[nH]1)CC2)[C@@H]1CCCC[C@@H]1O [Example 200, N-[(1R,2S)-2-hydroxycyclohexyl]-5-(1H-indole-2-carbonyl)-N-methyl-1H,4H,5H,6H,7H-pyrazolo[4,3-c]pyridine-3-carboxamide] | 4.60 to 6.00 | > 10 |
| O=C(c1cc2ccccc2[nH]1)N1CCc2n[nH]c(C(=O)N3CCN(Cc4ccccc4)C4(CC4)C3)c2C1 [Example 257, 2-(3-{4-benzyl-4,7-diazaspiro[2.5]octane-7-carbonyl}-2H,4H,5H,6H,7H-pyrazolo[4,3-c]pyridine-5-carbonyl)-1H-indole] | 4.60 to 6.00 | > 10 |
| O=C(c1cc2c(F)cc(F)cc2[nH]1)N1CCc2n[nH]c(C3CCC3)c2C1 [Example 388, 2-{3-cyclobutyl-2H,4H,5H,6H,7H-pyrazolo[4,3-c]pyridine-5-carbonyl}-4,6-difluoro-1H-indole] | > 6.00 | > 10 |
| O=C(c1cc2c(Cl)c(F)ccc2[nH]1)N1CCc2[nH]nc(C(=O)N3CCC(F)(F)C3)c2C1 [Example 217, 4-chloro-2-[3-(3,3-difluoropyrrolidine-1-carbonyl)-1H,4H,5H,6H,7H-pyrazolo[4,3-c]pyridine-5-carbonyl]-5-fluoro-1H-indole] | > 6.00 | > 10 |
| CN(C(=O)c1n[nH]c2c1CN(C(=O)c1cc3ccccc3[nH]1)CC2)C1(c2ccccc2)CC1 [Example 221, 5-(1H-indole-2-carbonyl)-N-methyl-N-(1-phenylcyclopropyl)-1H,4H,5H,6H,7H-pyrazolo[4,3-c]pyridine-3-carboxamide] | > 6.00 | > 10 |
| CC(=O)N1CCN(C(=O)c2[nH]nc3c2CN(C(=O)c2cc4ccccc4[nH]2)CC3)C2(CC2)C1 [Example 236, 1-{4-[5-(1H-indole-2-carbonyl)-2H,4H,5H,6H,7H-pyrazolo[4,3-c]pyridine-3-carbonyl]-4,7-diazaspiro[2.5]octan-7-yl}ethan-1-one] | 4.60 to 6.00 | > 10 |
| CN(CCC(=O)O)C(=O)CCN(C)C(=O)c1[nH]nc2c1CN(C(=O)c1cc3ccccc3[nH]1)CC2 [Example 275, 3-(3-{1-[5-(1H-indole-2-carbonyl)-2H,4H,5H,6H,7H-pyrazolo[4,3-c]pyridin-3-yl]-N-methylformamido}-N-methylpropanamido)propanoic acid] | 4.60 to 6.00 | > 10 |
| O=C(NC1CCCCC1)c1n[nH]c2c1CN(C(=O)c1cc3ccccc3[nH]1)CC2 [Example 87, N-cyclohexyl-5-(1H-indole-2-carbonyl)-1H,4H,5H,6H,7H-pyrazolo[4,3-c]pyridine-3-carboxamide] | 4.60 to 6.00 | > 100 |
| CN(C(=O)c1[nH]nc2c1CN(C(=O)c1cc3ccccc3[nH]1)CC2)C1(c2ccno2)CC1 [Example 402, 5-(1H-indole-2-carbonyl)-N-methyl-N-[1-(1,2-oxazol-5-yl)cyclopropyl]-2H,4H,5H,6H,7H-pyrazolo[4,3-c]pyridine-3-carboxamide] | > 6.00 | > 10 |
| CCOCC1(N(C)C(=O)c2[nH]nc3c2CN(C(=O)c2cc4ccc(F)cc4[nH]2)CC3)CC1 [Example 395, N-[1-(ethoxymethyl)cyclopropyl]-5-(6-fluoro-1H-indole-2-carbonyl)-N-methyl-2H,4H,5H,6H,7H-pyrazolo[4,3-c]pyridine-3-carboxamide] | > 6.00 | > 10 |

Source: patent US11236087B2, “Highly active pyrazolo-piperidine substituted indole-2-carboxamides active against the hepatitis B virus (HBV)” (AiCuris GmbH & Co. KG, priority 2017, dated 2022)
